# Results from the SangsterLogP compilation.
# Assay: not given
# Conditions: not given
row,logP,SMILES
1,3.13,CC(CC(=O)c1ccc(-c2ccccc2)cc1)C(=O)O (stereo not drawn)

# Assay: method code SF-AS, from DOI: 10.1016/s0021-9673(01)95502-5
# Conditions: pH 3.4
row,logD,SMILES
1,1.3,O=C(O)CCC(=O)c1ccccc1
2,3.37,CCC(O)(C(=O)O)c1ccc(CC(C)C)cc1 (stereo not drawn)
3,1.38,COc1ccc(C(=O)CCC(=O)O)cc1
4,3.35,O=C(O)CCCC(=O)c1ccc(-c2ccccc2)cc1
5,2.6,COc1ccc(C(=O)CC(C)CC(=O)O)cc1Cl (stereo not drawn)
6,3.82,CC(CC(=O)O)CC(=O)c1ccc(-c2ccccc2)cc1 (stereo not drawn)
7,1.62,CC(CC(=O)c1ccccc1)C(=O)O (stereo not drawn)
8,2.17,COc1ccc(C(=O)CCCC(=O)O)cc1Cl

# Same assay, conditions: pH 3.5
row,logD,SMILES
1,4.38,CC(CC(=O)O)CC(=O)c1ccc(C2CCCCC2)cc1 (stereo not drawn)
2,3.6,CC(C)COc1ccc(C(=O)CC(C)C(=O)O)cc1Cl (stereo not drawn)
3,2.89,CC(C)c1ccc(C(=O)CCCC(=O)O)cc1
4,2.28,O=C(O)CCC(=O)c1ccc(Br)cc1
5,3.95,O=C(O)CCCC(=O)c1ccc(C2CCCCC2)cc1
6,3.37,CCC(O)(C(=O)O)c1ccc(-c2ccccc2)cc1 (stereo not drawn)
7,3.39,CC(C)Cc1ccc(C(=O)CCCC(=O)O)cc1
8,2.78,CC(C)Oc1ccc(C(=O)CCC(=O)O)cc1Cl
9,4.36,O=C(O)CCC(=O)c1ccc(C2CCCCC2)c(Cl)c1
10,3.2,CC(C)Cc1ccc(C(=O)CCC(=O)O)cc1
11,4.08,CC(CC(=O)c1ccc(C2CCCCC2)cc1)C(=O)O (stereo not drawn)
12,2.85,CC(C)c1ccc(CC(=O)O)cc1
13,0.81,COc1ccc(C(C)(O)C(=O)O)cc1 (stereo not drawn)
14,3.4,CC(CC(=O)O)CC(=O)c1ccc(OC(C)C)c(Cl)c1 (stereo not drawn)
15,3.76,O=C(O)CCC(=O)c1ccc(C2CCCCC2)cc1
16,2.43,CCc1ccc(CC(=O)O)cc1
17,2.7,CC(C)c1ccc(C(=O)CCC(=O)O)cc1
18,2.18,CC(C)Oc1ccc(C(=O)CCC(=O)O)cc1
19,3.26,CC(O)(C(=O)O)c1ccc(C2CCCCC2)cc1 (stereo not drawn)
20,3.13,CC(C)(C)c1ccc(CC(=O)O)cc1
21,1.26,COc1ccc(C(C)(O)C(=O)O)cc1Cl (stereo not drawn)
22,3.88,CCCCCCOc1ccc(C(=O)CCC(=O)O)cc1
23,1.98,COc1ccc(C(=O)CCC(=O)O)cc1Cl
24,2.5,CC(C)Oc1ccc(C(=O)CC(C)C(=O)O)cc1 (stereo not drawn)
